The results in this text go back to patent US20260271924A1, “COMPOSITIONS FOR MODULATING PLANT GROWTH AND STRESS TOLERANCE, AND METHODS OF USE THEREOF” (The Regents of the University of California, priority 2023, published 2026).

“Also recorded” adds a separate entry of the source.

Test [1] relates to Arabidopsis. Nature of the test: Arabidopsis seedling growth / primary root length on treated ½× MS media. Type of test: in vivo, Arabidopsis thaliana. The method, then:
(§1) Plant Growth. For the Arabidopsis treatments, compounds were added to sterile ½× Murashige and Skoog (MS) plant growth media, and the pH was adjusted to 5.7 using potassium hydroxide. Seeds were sterilized using 20% bleach and sowed on the treated plant growth media. Plants were incubated in a 16 h/8 h day/night cycle growth chamber at 22° C. for 7-14 days prior to phenotyping. For the maize treatments, compounds were added to water, and the pH was adjusted to 5.7 using potassium hydroxide. Maize seeds were sterilized using 20% bleach and grown in large size seed germination pouches (see, e.g., mega-international.com) with the treatment. Plants were incubated in a 16 h/8 h day/night cycle growth chamber at 28° C. night/21° C. day for 5 days prior to phenotyping.
Stock Solutions. 100 mM stock solutions of the various metabolites and itaconate were produced. Metabolites were dissolved using Milli-Q (MQ) water and the pH was adjusted to 5.7-5.8 using 1M KOH. The Ocyl-itaconate stock solution was dissolved in dimethyl sulfoxide (DMSO). Arabidopsis seeds were sterilized using 20% bleach and allowed to mix for 7 minutes. After mixing, seeds were rinsed with sterilized water 6 times. Sterilized seedlings were then placed on media filled square plates. Micropore tape was used to wrap the plates and aluminum foil was used to cover plates, before stratifying for 2 days in a 4° C. chamber. After stratification, seedlings were placed in 22° C. light chamber at intensity 625 lux for 7 days before scanning. All quantifications of the seedlings were performed on FIJI Image J. Seedlings with interesting phenotypes were then transferred to soil in 22° C. conditions with light intensity 625 lux.

A further test deals with superoxide. Nature of the test: NBT staining of Arabidopsis roots (ROS). Conditions: NBT and H2DCFDA staining; 1 mM itaconate, 50 μM 4-OI. Type of test: in vivo, Arabidopsis thaliana. The method, then:
ROS staining. For ROS staining, superoxides were detected using NBT; and hydrogen peroxide was detected using 2′,7′-dichlorodihydrofluorescein diacetate (H2DCFDA).
NBT staining procedures were carried out as described in Kumar et al., Bio-protcol, 4:e1108, 2014. Briefly, a 0.2% solution of NBT was made in a 50 mM sodium phosphate buffer. This solution was used to soak seedlings for 2 minutes in the dark and was then rinsed using deionized (DI) water. Images were taken on a with a 1× objective with a Nikon SMZ1270 Stereo microscope.

The subject of the next test is DR5-GFP. Put plainly: Auxin reporter line imaging. As to conditions: 4-OI treatment; compared to the control. Type of test: in vivo, Arabidopsis thaliana. The source says: (§2) Confocal Images. For Arabidopsis, most of the roots were stained by PI (Propidium iodide). Hormone reporter lines (GFP, 488 nm), hydrogen peroxide sensor lines (GFP, 488 nm; CFP, 408 nm) (see, Shi et al., Nat. Commun. 13:5040, 2022), ATP sensor lines (DeCol et al., eLife, 6:e26770, 2017) were observed under a Leica SP8 confocal microscope (CFP, 439 nm; VENUS, 516 nm).

The test system of a further test is pPIN1-PIN1-GFP. Put plainly: Auxin transport reporter line imaging. Type of test: in vivo, Arabidopsis thaliana. Conditions: 4-OI treatment.
Text: as §2

The test system of a further test is 6×ABRE-R:erGFP. Put plainly: ABA signaling reporter line imaging. Type of test: in vivo, Arabidopsis thaliana. As to conditions: 4-OI treatment.
Text: as §2

A further test relates to ATP levels. Nature of the test: Fluorescent ATP reporter line imaging. Type of test: in vivo, Arabidopsis thaliana. As to conditions: 4-OI; meristem zone.
Text: as §2

In the next test the test system is pCYCB1; 1-CYCB1; 1-GFP. Nature of the test: Cell cycle reporter line imaging. It is filed as in vivo, Arabidopsis thaliana. As to conditions: 50 μM 4-OI; compared to the control.
Text: as §2

A further test deals with TCSn-GFP. Nature of the test: Cytokinin signaling reporter line imaging. It is filed as in vivo, Arabidopsis thaliana.
Text: as §2

In the next test the test system is maize. Put plainly: Maize seedling growth under treatment in seed germination pouches. Type of test: in vivo. The method, then: as §1
In test [2] the test system is Arabidopsis. Put plainly: Arabidopsis root growth under itaconate combined with stress agents or sucrose. Type of test: in vivo, Arabidopsis thaliana. Conditions: 50 mM NaCl; 100 mM Mannitol. The method, then:
as §1

Test [3] relates to root meristem and mature cells. Put plainly: Aconitate treatment of roots. It is filed as in vivo. As to conditions: treatment with aconitate.

As to `CC(CC(=O)O)C(=O)O` (stereo not shown) [2-methyl succinate, reference compound], the “impact on Arabidopsis (primary root length)” value with Arabidopsis [1] (0.5 mM 2-methyl succinate) and in the test with Arabidopsis [1] (2 mM 2-methyl succinate) was “does not impact Arabidopsis” in each case.

Turning to `C=C(CC(=O)OCCCCCCCC)C(=O)O` [4-OI, 4-octyl itaconate], in the test with superoxide, the “ROS levels in Arabidopsis roots” value was “decrease in ROS levels; also recorded: repress”. The DR5-GFP fluorescent intensity result in the test with DR5-GFP is “significantly induced; also recorded: is increased”. Besides, in the test with Arabidopsis [1] (4-OI, 4 day old seedlings treated for 3 days), the Arabidopsis growth entry was “inhibits Arabidopsis growth in a dose-dependent manner”. For the same molecule, the plant growth entry with Arabidopsis [1] (Arabidopsis, 50 μM 4-OI) is “nearly arrested plant growth”. In addition, the root gravitropic orientation entry in the test on Arabidopsis [1] (Arabidopsis, 4-OI (50 μM)) is “roots lose their gravitropic orientation; also recorded: defective gravitropic phenotype”. Further, in the test with pPIN1-PIN1-GFP, the “pPIN1-PIN1-GFP fluorescent intensity and area” value is “reduces both the pPIN1-PIN1-GFP fluorescent intensity and area”. Besides, the “6×ABARE-R:erGFP intensity in the roots” value in the test with 6×ABRE-R:erGFP is recorded as “induces”. Besides, the ATP levels entry with ATP levels is recorded as “increased ATP levels”. Moreover, the “number of actively dividing cells” value with pCYCB1; 1-CYCB1; 1-GFP is recorded as “significant reduction”. Further, the “TCSn-GFP signal in the QC” value with TCSn-GFP (4-OI treatment) is “increases the signal in the QC”. Also, in the test with TCSn-GFP (itaconate or 4-OI treatment), the “TCSn-GFP intensity in the columella” value is reported as “decrease; also recorded: reduces”. In addition, in the test on maize (50 μM 4-OI for 5 days), the maize root growth result is recorded as “enhanced maize root growth” and the maize shoot growth entry is given as “without affecting shoot growth”.

For `C#CCCCCCCOC(=O)CC(=C)C(=O)O` [ITalk, itaconate-alkyne, reference compound], the “phenotype induced by ITalk treatment” value in the test on Arabidopsis [1] (Arabidopsis, 1 μM and 10 μM iTalk) is reported as “closely resembles that of 4-OI”.

Turning to `[Cl-].[Na+]` [NaCl, sodium chloride], in the test on Arabidopsis [2], the “root growth under stress agent alone” value was “decrease root growth”.

Regarding `O=C(O)/C=C(/CC(=O)O)C(=O)O` [aconitate], in test [3], the “length of mature cells” value was “increased the length of mature cells” and the meristem cell number result was “inhibited meristem cell number”.

In the test with Arabidopsis [1] (Arabidopsis, same concentration of itaconate as maize, p<0.0001), `C=C(CC(=O)O)C(=O)O` [itaconate] showed a decreased growth of 25%. In the test with maize (maize treated with itaconate, p=0.01), the increased growth amounted to 30%.

Take `OC[C@@H](O)[C@@H](O)[C@H](O)[C@H](O)CO` [mannitol]: the “root growth under stress agent alone” value in the test on Arabidopsis [2] is given as “decrease root growth”.
